Structures are written as SMILES.

The target in the first assay is T1, Fatty-acid amide hydrolase 1 (Homo sapiens, UniProt O00519).
T1 sequence (O00519 whole entry): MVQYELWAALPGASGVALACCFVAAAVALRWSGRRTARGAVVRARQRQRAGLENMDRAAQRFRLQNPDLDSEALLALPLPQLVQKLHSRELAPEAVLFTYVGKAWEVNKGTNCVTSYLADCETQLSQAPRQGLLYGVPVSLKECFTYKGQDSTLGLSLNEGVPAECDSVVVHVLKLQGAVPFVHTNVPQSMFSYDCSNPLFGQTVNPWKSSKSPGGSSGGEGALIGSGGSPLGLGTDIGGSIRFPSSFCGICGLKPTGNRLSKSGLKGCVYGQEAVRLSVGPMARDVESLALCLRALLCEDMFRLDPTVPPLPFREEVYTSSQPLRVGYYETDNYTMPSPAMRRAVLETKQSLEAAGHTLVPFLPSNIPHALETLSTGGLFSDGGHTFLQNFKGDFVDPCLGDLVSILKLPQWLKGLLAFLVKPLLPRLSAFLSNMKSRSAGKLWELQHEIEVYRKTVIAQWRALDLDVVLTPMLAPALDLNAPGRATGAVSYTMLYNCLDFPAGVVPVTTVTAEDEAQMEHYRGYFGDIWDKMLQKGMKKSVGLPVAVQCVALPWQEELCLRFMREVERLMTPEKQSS
As to the kind of experiment: Inhibition of FAAH.
Details: not given
Consider `CCCCCCCC/C=C\CCCCCCC(=O)c1nccs1`, for which the Ki was > 100000 nM.
Still for that read-out and setting: under `CCCCCCCC/C=C\CCCCCCCC=O` [OLEALDEHYDE] stands 190 nM.
Still for that read-out and setting: under `O=C(O)c1cccc(CCCCCCC(=O)c2ncc(-c3ccccn3)o2)c1` stands > 600 nM; under `CCCCCCCC/C=C\CCCCCCC(=O)c1nc2cc(C)ccc2o1`, > 100000 nM.
`CCCCCCCCCC(=O)C(F)(F)F` yielded a Ki of 130 nM.
Same read-out and setting: with `CCCCCCCC(=O)C(F)(F)F` the figure was 1200 nM.
On the same count and under the same terms, under `CCCCCCCC/C=C\CCCCCCC(=O)c1ncc(-c2ccccc2)o1` stands 320 nM; under `CCCCCCCC/C=C\CCCCCCC(=O)c1nc2cccc(C)c2o1`, 13000 nM.
`CCCCCC(=O)C(F)(F)F` registered a Ki of 28900 nM.
Turning to `CCCCCCCC/C=C\CCCCCCCC(=O)C(N)=O`, the Ki was 17 nM.
`CCCCCCCC/C=C\CCCCCCCC(=O)C(F)(F)F` returned a Ki of 12 nM.
On the same count and under the same terms, with `CCCCCCCC/C=C\CCCCCCC(=O)c1nc2cnccc2o1` the figure was 7.2 nM; with `O=C(CCCCCCc1cccc(Cl)c1)c1ncc(-c2ccccn2)o1`, 0.9 nM; with `CCCCCCCC/C=C\CCCCCCC(=O)c1ncc(-c2ccco2)o1`, 54 nM.
For `CCCCCCCC/C=C\CCCCCCC(=O)c1ccccc1`, the Ki was > 100000 nM.
The molecule `CCCCCCC(C)OC(=O)CC(=O)CBr` (configuration not stated) yielded a Ki of 820 nM.
Same read-out and setting: with `O=C(CCCC[S+]([O-])Cc1ccccc1)c1ncc(-c2ccccn2)o1` (configuration not stated) the figure was 2500 nM.
For `CCCCCCCC/C=C\CCCCCCCC(C)=O`, the Ki is > 100000 nM.
On the same count and under the same terms, under `O=C(CCCCOCc1ccccc1)c1ncc(-c2ccccn2)o1` stands 55 nM; under `CCCCCCCC/C=C\CCCCCCC(=O)c1nnc(-c2ccccn2)o1`, 3000 nM.
On the same count and under the same terms, under `CCCCCCCC/C=C\CCCCCCCC(=O)O` [OLEIC ACID] stands 6000 nM.
On the same count and under the same terms, under `CCCCCCC(=O)C(F)(F)F` stands 10700 nM; under `CCCCCCCC/C=C\CCCCCCC(=O)c1nc(-c2ccccn2)co1`, 31 nM; under `CCCCCCCC/C=C\CCCCCCC(=O)c1ncc(-c2ccncc2)o1`, 56 nM.
In turn, `CCCCCCCC/C=C\CCCCCCC(=O)c1ccncn1` registered a Ki of 110 nM.
`O=C(CCCCCCc1ccccc1)c1nc2ncccc2o1` gave a Ki of 0.28 nM.
The same measure, in the same setting: under `O=C(CCCCCCc1ccccc1)c1nnn(-c2ccccn2)n1` stands 1.1 nM; under `CCCCCCCC/C=C\CCCCCCC(=O)c1nc2c(C)cccc2o1`, > 100000 nM; under `CCCCCCCC/C=C\CCCCCCC(=O)c1nc2ccc(C)cc2o1`, > 100000 nM.
The same measure, in the same setting: with `CCCCCCCC/C=C\CCCCCCC(=O)c1ncc(-c2ccsc2)o1` the figure was 13200 nM; with `CCCCCCCC/C=C\CCCCCCC(=O)c1ncc(-c2ccccn2)o1`, 18 nM; with `CCCCCCCCCCCCCCCCCC(=O)C(F)(F)F`, 240 nM.
The same measure, in the same setting: with `CCCCCCCC/C=C\CCCCCCC(=O)c1nc(-c2ccccc2)c(-c2ccccc2)o1` the figure was > 100000 nM; with `O=C(CCCCCCc1ccccc1)c1nnc(-c2ccccn2)[nH]1`, > 10000 nM.
For `CCCCCCCC/C=C\CCCCCCCC(=O)CCl`, the Ki came out at 700 nM.
The same measure, in the same setting: with `O=C(CCCCSCc1ccccc1)c1ncc(-c2ccccn2)o1` the figure was 25 nM; with `CCCCCCCC/C=C\CCCCCCC(=O)c1nc2ncccc2o1`, 2.3 nM; with `O=C(CCCCCCc1ccccc1)C(F)(F)F`, 100 nM.
In the case of `CCCCCCCC/C=C\CCCCCCC(=O)c1nccn1C`, the Ki was > 100000 nM.
Consider `CCCCCCCC/C=C\CCCCCCC(=O)c1nc2ccccc2o1`, for which the Ki worked out at 370 nM.
`CCCCCCCC/C=C\CCCCCCC(=O)c1ncc(-c2cccnc2)o1`: the Ki worked out at 61 nM.
Same read-out and setting: under `CN(CCCCC(=O)c1ncc(-c2ccccn2)o1)Cc1ccccc1` stands 200 nM; under `O=C(CCCCCCCCc1ccccc1)c1nc2ncccc2o1`, 0.52 nM.
Still for that read-out and setting: under `O=C(CCCc1ccccc1)c1nc2ncccc2o1` stands 6.9 nM.
Regarding `CCCCCCCC/C=C\CCCCCCCC(=O)C(=O)OCC`, the affinity corresponds to a Ki of 9 nM.
Same read-out and setting: under `O=C(CCCCCCCc1ccccc1)c1nc2ncccc2o1` stands 0.39 nM; under `O=C(CCCCCCc1ccccc1)c1nnc[nH]1`, > 1000 nM.
On the same count and under the same terms, under `CCCCCCCC/C=C\CCCCCCC(=O)c1cccnn1` stands 130 nM; under `CCCCCCCCCCCCCC(=O)C(F)(F)F`, 490 nM; under `CCCCCCCC/C=C\CCCCCCCC(OC)OC`, > 300000 nM.
The molecule `O=C(CCc1ccc(COc2ccccc2)cc1)c1ncc(-c2ccccn2)o1` displayed a Ki of 1 nM.
The same measure, in the same setting: with `N#Cc1cnc(C(=O)CCc2ccc(-c3ccccc3)cc2)o1` the figure was 0.2 nM.
The same measure, in the same setting: with `CCCCCCCC/C=C\CCCCCCC(=O)c1nnn(C)n1` the figure was 65 nM; with `CCCCCCCC/C=C\CCCCCCCC(O)C(N)=O` (configuration not stated), > 100000 nM.
`CCCCCCCC/C=C\CCCCCCC(=O)c1nc2cccnc2o1` came in with a Ki of 11 nM.
Same read-out and setting: with `CCCCCCCCCCCC(=O)C(F)(F)F` the figure was 140 nM; with `CCCCCCCC/C=C\CCCCCCC(=O)c1ncc(-c2ccoc2)o1`, 610 nM; with `O=C(CCCCc1ccccc1)c1nc2ncccc2o1`, 0.3 nM.
Still for that read-out and setting: with `O=C(CCCCCCc1ccccc1)c1nnn[nH]1` the figure was > 1000 nM; with `O=C(CCCCS(=O)(=O)Cc1ccccc1)c1ncc(-c2ccccn2)o1`, > 10000 nM; with `O=C(CCCCCc1ccccc1)c1nc2ncccc2o1`, 0.2 nM.
For `CCCCCCCC/C=C\CCCCCCC(=O)c1nc2ccncc2o1`, affinity was put at a Ki of 3.7 nM.
Molecule `CCCCCCCC/C=C\CCCCCCC(=O)c1ncco1` registered a Ki of 17 nM.
On the same count and under the same terms, under `CCCCCCCC/C=C\CCCCCCC(=O)c1ccccn1` stands > 100000 nM.

The same assay, now with this note: read-out: IC50.
`CCCCC/C=C\C/C=C\C/C=C\C/C=C\CCCC(=O)NCC1CC1`: the IC50 turned out to be 1400 nM.
For the molecule `CCCCC/C=C\C/C=C\C/C=C\C/C=C\CCCC(=O)NC12CC3CC(CC(C3)C1)C2`, the IC50 came out at 37400 nM.
In the case of `CCOC(=O)CCCc1ccc(-n2c(CC)nc(-c3ccccc3)c2-c2ccccc2)cc1`, the IC50 stood at 64 nM.
For `CCCCC/C=C\C/C=C\C/C=C\C/C=C\CCCC(=O)NCCCl`, the IC50 is 900 nM.
Still for that read-out and setting: under `O=C(NC1CCCC1)Oc1cccc(C(=O)c2nc3ccccc3o2)c1` stands 28000 nM.
For the molecule `OB(O)c1ccc(Oc2ccccc2)cc1`, the IC50 was < 10 nM.
With `NC(=O)c1cccc(-c2cccc(OC(=O)NCc3ccc4ccccc4c3)c2)c1`, the IC50 was 0.63 nM.
In the case of `O=C(NC1CCCC1)Oc1cccc(C(=O)c2nc3ccccc3s2)c1`, the IC50 came to 47000 nM.
As for `CCCCC/C=C\C/C=C\C/C=C\C/C=C\CCCNC(=O)NCc1ccc(OC)c(O)c1`, the IC50 was determined as 2000 nM.
With `CCCCC/C=C\C/C=C\C/C=C\C/C=C\CCCC(=O)O` [ARACHIDONIC ACID], the IC50 is > 100000 nM.
For `CNC(=O)COC(=O)N1CCC(CCc2ccc(Cl)cc2)CC1`, the IC50 turned out to be 13 nM.
Consider `CCCCC/C=C\C/C=C\C/C=C\C/C=C\CCCC(=O)NCCO` [ANANDAMIDE], for which the IC50 turned out to be 3400 nM.
Same read-out and setting: with `CCCCC/C=C\C/C=C\C/C=C\C/C=C\CCCC(=O)Nc1cccnc1` the figure was 1200 nM; with `O=C(Nc1cccc(C(=O)c2nc3ccccc3o2)c1)NC1CCCC1`, > 300000 nM.
With `CC(C)c1cccc(CN2CCC(CCCC(=O)c3ncco3)CC2)c1`, the IC50 came out at 3.6 nM.

The same assay, now with this note: read-out: pIC50 (converted).
For the molecule `CCCCCCCCCCCCCCN1C(=O)C(c2ccccc2)(c2ccccc2)NC1=S`, the IC50 is 1150 nM.
Same read-out and setting: under `CCCCCCCCCCCCCCCC(=O)NCCCl` stands 2630 nM; under `CCCCCCCCCCCCCCCC(=O)NCCCO` [N-(3-HYDROXYPROPYL)PALMITAMIDE], 3800 nM.
Regarding `C=CCNC(=O)CCCCCCCCCCCCCCC` [HEXADECANOIC ACID ALLYLAMIDE], the IC50 was 3390 nM.
In the case of `CCCCCCCCCCCCCCCC(=O)NCCCCl`, the IC50 is 2510 nM.
Same read-out and setting: under `CCCCCCCCCCCCCCCC(=O)NCC` stands 3550 nM; under `CCCCCCCCCCCCCCCC(=O)NCCBr`, 3550 nM.

The next assay concerns the target T1, Fatty-acid amide hydrolase 1. Kind of assay: Inhibition of human FAAH.
Details: not given
Take `O=C(NC1CCCCC1)Oc1cccc(-c2ccccc2)c1`: the IC50 amounted to 63 nM.
The same measure, in the same setting: under `NC(=O)c1cccc(-c2cccc(OC(=O)NCCCCCCc3ccccc3)c2)c1` stands 14 nM; under `O=C(NC1CCCCC1)Oc1ccc2ccccc2c1`, 324 nM.
Same read-out and setting: with `O=C(NCC1CCCCC1)Oc1ccc(C(=O)O)cc1` the figure was < 100 nM; with `CNC(=O)Oc1cccc2ccccc12` [CARBARIL], > 30000 nM; with `CCCCCCCC/C=C\CCCCCCCNC(=O)Oc1cccc(-c2cccc(C(N)=O)c2)c1`, 58 nM.

As a reminder, the Ki is a dissociation constant, usually derived from enzyme kinetics or from competition with a known ligand. The low end stands for tighter binding, the high end for weaker binding.
